# Results: patent US5254584A, “N-acetonylbenzamides and their use as fungicides” (Rohm and Haas Company, priority 1992, dated 1993)
# Experiments:
# [1] = test system: Botrytis cinerea; test: Botrytis Gray Mold on Tomato (BOT); assay type: in vivo; conditions: 300 g/Ha, 5-7 days
# [2] = test system: cucumber plants; test: In vivo phytotoxic activity, foliar spray, cucumber; set-up: key: +: indicating presence of a plant growth regulatory effect as compared to a control to which a solvent mixture (acetone/water/methanol) lacking the test compound was applied; 0: A zero indicates no apparent effect; conditions: foliar spray 2200 g/Ha, seven days after application
# Protocol: (§1) The compounds of Examples 1 and 12 were tested in vivo for phytotoxic activity by applying the compounds to the foliage of cucumber, tomato, bean, lettuce and strawberry plants as a spray at a rate of 2200 g/Ha. The plants were evaluated seven days after spray application of the compounds.
# (§2) Phototoxicity scores are set forth below in Table 6. The phytotoxicity scores use a symbol, "+", indicating presence of a plant growth regulatory effect as compared to a control to which a solvent mixture (acetone/water/methanol) lacking the test compound was applied. A zero indicates no apparent effect. Each score is a composite representing the mode value for three replicate plants.
# [3] = test system: Botrytis cinerea; test: microbe, parasite or virus in culture; assay type: cell-based; conditions: 72 h, 3 days at room temperature, read-out: BOC percent inhibition of fungal growth
# [4] = test system: lettuce plants; test: In vivo phytotoxic activity, foliar spray, lettuce; set-up: key: +: indicating presence of a plant growth regulatory effect as compared to a control to which a solvent mixture (acetone/water/methanol) lacking the test compound was applied; 0: A zero indicates no apparent effect; conditions: foliar spray 2200 g/Ha, seven days after application
# Protocol: as §1, §2
# [5] = test system: Pseudocercosporella herpotrichoides; test: microbe, parasite or virus in culture; assay type: cell-based; conditions: Oculimacula yallundae, 72 h, 3 days at room temperature, read-out: PSH percent inhibition of fungal growth
# [6] = test system: tomato plants; test: In vivo phytotoxic activity, foliar spray, tomato; set-up: key: +: indicating presence of a plant growth regulatory effect as compared to a control to which a solvent mixture (acetone/water/methanol) lacking the test compound was applied; 0: A zero indicates no apparent effect; conditions: foliar spray 2200 g/Ha, seven days after application
# Protocol: as §1, §2
# [7] = test system: Venturia inaequalis; test: Fungitoxicity assay against Venturia inaequalis (in vitro, microtiter MIC); assay type: cell-based; conditions: 168 h, minimum inhibitory concentration, 7 days at 25° C.
# Protocol: The compounds of Examples 1-20 were tested in vitro for fungicidal activity and phytotoxicity. A. The compounds were tested in vitro for fungicidal activity against Pythium ultimum, Botrytis cinerea and Venturia inaequalis. Fungitoxicity assay against Venturia inaequalis: Test compounds were dissolved in dimethylsulfoxide at 1 milligram per milliliter (mg/ml), and 50 ul added to 950 ul of yeast extract-dextrose medium (YED, 0.4% yeast extract, 2% dextrose) to give 50 part per million (ppm) solutions. Minimum inhibitory concentration (MIC) values were determined using a microtiter assay with twofold serial dilutions of the prepared 50 ppm solutions (100 ul) in YED medium. Inoculum consisted of a spore suspension of V. inaequalis in YED medium at 2.5×10^5 spores per ml. […] Results of the testing for fungicidal activity against the above named fungi are set forth below in Table 3 as Pythium EC50 (ppm), Botrytis EC50 (ppm) and Venturia MIC (ppm), respectively.
# [8] = test system: bean plants; test: In vivo phytotoxic activity, foliar spray, bean; set-up: key: +: indicating presence of a plant growth regulatory effect as compared to a control to which a solvent mixture (acetone/water/methanol) lacking the test compound was applied; 0: A zero indicates no apparent effect; conditions: foliar spray 2200 g/Ha, seven days after application
# Protocol: as §1, §2
# [9] = test system: Botrytis cinerea; test: Fungitoxicity assay against Botrytis cinerea (in vitro, colony diameter); assay type: cell-based; conditions: 48 hours at 25° C., read-out: Botrytis EC50
# Protocol: The compounds of Examples 1-20 were tested in vitro for fungicidal activity and phytotoxicity. A. The compounds were tested in vitro for fungicidal activity against Pythium ultimum, Botrytis cinerea and Venturia inaequalis. Fungitoxicity assay against Botrytis cinerea: […] The mixtures were poured immediately into 9 centimeter (cm) diameter petri dishes. Two replicate plates were used for each treatment. Each plate was inoculated with a 7 mm diameter plug taken from the growing edge of a 5 day old culture of B. cinerea on potato dextrose agar. […] Results of the testing for fungicidal activity against the above named fungi are set forth below in Table 3 as Pythium EC50 (ppm), Botrytis EC50 (ppm) and Venturia MIC (ppm), respectively.
# [10] = test system: Phytophthora capsici; test: microbe, parasite or virus in culture; assay type: cell-based; conditions: 72 h, 3 days at room temperature, read-out: PHY percent inhibition of fungal growth
# [11] = test system: Piricularia oryzae; assay type: in vivo; conditions: 300 g/Ha; seven to eight days after inoculation; Nato rice
# [12] = test system: Pythium ultimum; test: Fungitoxicity assay against Pythium ultimum (in vitro, mycelial dry weight); assay type: cell-based; conditions: Globisporangium ultimum, 48 hours at 25° C., read-out: Pythium EC50
# Protocol: The compounds of Examples 1-20 were tested in vitro for fungicidal activity and phytotoxicity. A. The compounds were tested in vitro for fungicidal activity against Pythium ultimum, Botrytis cinerea and Venturia inaequalis. Fungitoxicity assay against Pythium ultimum: A dilution series of test compound was prepared in dimethylsulfoxide, and 0.1 milliliter (ml) of each dilution was added to 19.9 ml of a liquid asparagine-sucrose broth ([…]. and Katznelson, K., 1971, Can. J. […] Each plate was inoculated with a mycelial plug, 7 millimeters (mm) in diameter, taken from the growing edge of a culture of Pythium ultimum grown on potato dextrose agar. Two replicate plates were used for each treatment. The increase in mycelial dry weight was determined after growth for 48 hours at 25° C. with shaking on a gyrotary shaker at 60 revolutions per minute (rpm). EC50 values were calculated from dose response curves. As used herein, the terminology "EC50" means the concentration of test compound required to inhibit growth by 50% as compared to a control lacking the test compound. Results of the testing for fungicidal activity against the above named fungi are set forth below in Table 3 as Pythium EC50 (ppm), Botrytis EC50 (ppm) and Venturia MIC (ppm), respectively.
# [13] = Tobacco root assay for phytotoxicity (in vitro root elongation); conditions: 7 days, 27° C., read-out: Tob. EC50
# Protocol: The compounds of Examples 1-20 were tested in vitro for fungicidal activity and phytotoxicity.
# B. The compounds were tested in vitro for phytotoxicity in a tobacco root elongation assay.
# Tobacco root assay for Phytotoxicity:
# A dilution series of test compound was prepared in dimethylsulfoxide and 20 ul of each dilution was added to 20 ml of molten nutrient medium, consisting of Murashige and Skoog salt base, 2% sucrose and 1% agar, to give the desired concentrations of test compound. The mixtures were poured immediately into 9 cm diameter petri dishes. Surface-sterilized tobacco seeds were placed on each plate (20 seeds per plate) and the plates incubated in a vertical position in a 27° C. incubator with a 16 hour photoperiod. After 7 days the mean root lengths were calculated, and EC50 values determined from dose response curves.
# Results of the tobacco root assay are set forth below in Table 3 as Tob. EC50 (ppm).
# [14] = test system: Pythium ultimum; test: microbe, parasite or virus in culture; assay type: cell-based; conditions: Globisporangium ultimum, 72 h, 3 days at room temperature, read-out: PYU percent inhibition of fungal growth
smiles,measurement,setting,value
"CCC(C)(NC(=O)c1cc(C)cc(C=NOC)c1)C(=O)CCl (centres unmarked) [Example 12, N-[3'-(1'-chloro-3'-methyl-2'-oxopentan)]-3-methoxyiminomethyl-5-methylbenzamide]",BOT percent disease control,[1],100%
same,"phytotoxicity score, Cucumber",[2],0
same,inhibition at 25 ppm,[3],100%
same,"phytotoxicity score, Lettuce",[4],0
same,inhibition at 25 ppm,[5],100%
same,"phytotoxicity score, Tomato",[6],0
same,MIC,[7],0.1 µg/mL
same,"phytotoxicity score, Bean",[8],0
same,IC50,[9],0.28 µg/mL
same,inhibition at 25 ppm,[10],100%
same,RB percent disease control,[11],75%
same,IC50,[12],0.16 µg/mL
same,IC50 at 168 h,[13],0.38 µg/mL
same,inhibition at 25 ppm,[14],100%
